Assay results published in US20180333401A1, “METHODS OF TREATING LIVER DISEASE” (Gilead Sciences, Inc., priority 2017, published 2018).
Marks after values point to notes of the source that are not given here.

Tests used:
Assay type in all cases: in vivo, human
[1] = tested on: hepatic proton density fat fraction (PDFF); assay: Hepatic fat by MRI-PDFF, proof of concept study in subjects with NASH; conditions: for MRI-PDFF, median relative (%) change from BL / ≥30% reduction in MRI-PDFF, % of subjects: W12, orally QD for 12 weeks; for PDFF compared with BL (in words): 12 weeks
Experimental: (§1) 70 subjects with NASH diagnosed by a hepatic proton density fat fraction (PDFF) ≥10% and liver stiffness ≥2.88 kPa by MRE, or liver biopsy consistent with NASH and stage 2-3 fibrosis were enrolled. Successive cohorts received monotherapy with Formula (II) 18 mg, Formula (VII) 20 mg, or Formula (V) 30 mg (n=10/cohort), or combination therapy with Formula (II)+Formula (VII) (18/20 mg) or Formula (II)+Formula (V) (18/30 mg) (n=20/cohort) orally QD for 12 weeks. Centrally-read PDFF and MRE, and serum fibrosis markers were measured at baseline (BL), W4 and W12. Deuterated water was administered to measure fractional synthesis of lipids (de novo lipogenesis [DNL]) and fibrosis-related markers (data are pending).

liver stiffness = assay: Liver stiffness by MRE, proof of concept study in subjects with NASH; conditions: W12, orally QD for 12 weeks
Experimental: as §1

ALT, GGT = assay: Liver biochemistry (ALT, GGT), proof of concept study in subjects with NASH; conditions: for ALT, median relative (%) change from BL / GGT, median relative (%) change from BL: W12, orally QD for 12 weeks
Experimental: as §1

TIMP-1, PIII-NP = assay: Serum fibrosis markers (TIMP-1, PIII-NP), proof of concept study in subjects with NASH; conditions: for PIII-NP, median relative (%) change from BL / TIMP-1, median relative (%) change from BL: serum, W12, orally QD for 12 weeks
Experimental: as §1

[2] = Safety (AEs), proof of concept study in subjects with NASH; conditions: over 12 weeks, orally QD
Experimental: as §1

| Compound | MRI-PDFF, median relative (%) change from BL [1] | ≥30% reduction in MRI-PDFF, % of subjects [1] [%] | MRE, median relative (%) change from BL (liver stiffness) [%] | ALT, median relative (%) change from BL (ALT, GGT) [%] | GGT, median relative (%) change from BL (ALT, GGT) | PIII-NP, median relative (%) change from BL (TIMP-1, PIII-NP) [%] | TIMP-1, median relative (%) change from BL (TIMP-1, PIII-NP) | Grade 2 or higher AE, % of subjects [2] [%] | PDFF compared with BL (in words) [1] | ALT compared with BL (in words) (ALT, GGT; 12 weeks) | GGT compared with BL (in words) (ALT, GGT; 12 weeks) | PIII-NP compared with BL (in words) (TIMP-1, PIII-NP; 12 weeks) | TIMP-1 compared with BL (in words) (TIMP-1, PIII-NP; 12 weeks) |
| --- | --- | --- | --- | --- | --- | --- | --- | --- | --- | --- | --- | --- | --- |
| Cc1cc(F)c(C(=O)Nc2cccc(-c3nncn3C(C)C)n2)cc1-n1cnc(C2CC2)c1 [Formula (II)] | 7.1% | 10 | −8.6 | −1.2 | −4.4% | −8.7 | 2.6% | 40 |  |  |  |  |  |
| O=C(O)c1ccnc(N2CC(O)(c3ccc(OCc4c(-c5c(Cl)cccc5Cl)noc4C4CC4)cc3Cl)C2)c1 [Formula (V)] | −15.6* % | 0 | −8.3 | −29.7 | −19.3* % | 8.8 | 6.6* % | 40 | reduced | reduced | reduced |  |  |
| Cc1cc(F)c(C(=O)Nc2cccc(-c3nncn3[C@@H](C)CF)n2)cc1-n1cnc(C2CC2)c1 [Formula (VII)] | −42.7* % | 70 | −8.9 | −33.5 | −1.6% | −11.9 | −11.6* % | 40 | significant improvements | non-significant reductions |  | non-significant reductions | significant improvements |
